We go through 2 molecules from patent US20070041934A1, “Dendrimer based compositions and methods of using the same” (priority 2005, published 2007).

The structures appear in SMILES notation. Where only a bound is given, the exact number is not on record here.

In data set [1] the test system is KB cells. The data set can be described thus: Cell growth inhibition (XTT assay / total cell protein). Type of data set: cell-based, human. The method, then: Cell culture and treatment. KB cells were maintained in folate-free medium containing 10% serum (See, e.g., Quintana et al, Pharm. Res. 19, 1310 (2002)) to provide extracellular FA similar to that found in human serum. Cells were plated in 12-well plates for uptake studies, in 24-well plates for cell growth analysis, and in 96-well plates for XTT assay. Cells were rinsed with FA-free medium containing dialyzed serum and incubated at 37° C. with dendrimer-drug conjugates for the indicated time periods and concentrations. KB cells were also maintained in RPMI medium containing 2 μM FA to obtain cells which express low FAR.
Evaluation of dendrimer cytotoxicity. Cell growth was determined by assay of the total protein in lysates of treated cells using a bicinchoninic acid reagent (PIERCE, and by XTT assay, using a kit from Roche.
Because the binding of the conjugate to KB cells reaches maximal uptake within 1 h (Quintana et al, 2002. Pharmaceutical Research 19: 1310-1316.), the effect of the G5-FI-FA-MTX on cell growth was initially tested by pre-incubation of cells with the conjugate for 1 h, followed by incubation in a drug-free medium for 5 d. […] When the cells were pre-incubated with dendrimers for 4 h, there was a modest decrease of about 10% in cell growth as determined by XTT assay. The cytotoxicity measurements were therefore done by incubation with the dendrimer for a minimum of 24 h, a pre-incubation time period shown to induce significant cytotoxicity.
Time course and dose dependent inhibition of cell growth. Previous studies have shown that MTX-induced cytotoxicity is detectable in vitro only if the medium is completely deprived of FA (See, e.g., Sobrero & Bertino, Int. J. Cell Cloning 4, 51 (1986)). The effect of the trifunctional dendrimers on cell growth was tested in cells incubated in a FA-deficient medium. Cells were treated with 300 nM conjugates (equivalent of 1500 nM MTX) or 1500 nM free MTX for 1-4 days, and cell proliferation was determined by estimation of cellular protein content. Cells were treated for 2 days with different concentrations of the conjugates or free MTX (the conjugate concentration is given as MTX equivalents, with 5 MTX per dendrimer molecule). KB cells which express high and low FAR were incubated with 30 nM of the dendrimers for 1 hr at 37° C., rinsed, and the fluorescence of cells was determined by flow cytometric analysis (See. e.g., FIG. 21, left panel). Pre-incubation with 50 μM free FA for 30 min totally prevents cellular binding and uptake of the polymer conjugates (See. e.g., FIG. 21, left panel).
The inhibition of cell growth induced by the conjugates was also tested by XTT assay which is based on the conversion of XTT to formazan by the active mitochondria of live cells (See, e.g., Roehm et al, J Immunol Methods 142, 257 (1991)).
As growth inhibition induced by free MTX was higher than with the equimolar concentrations of MTX in the G5-FITC-FA-MTX below 1 μM (See, e.g., FIG. 21), it was tested whether the FA moiety in the G5-FITC-FA-MTX may be rescuing the cells from MTX-induced cytotoxicity. As the G5-FITC-FA-MTX preparation contained equimolar concentrations of MTX and FA, the effect of similar concentrations of free MTX and free FA on the inhibition of cell growth was determined. […] The cells were rinsed to remove the drugs and incubated with fresh medium for an additional 6 d, and total cell protein was determined. […]

In data set [2] the test system is s.c. human KB xenografts. Description: Targeted drug delivery to tumor, tumor growth and survival. Type of data set: in vivo, SCID mice. Particulars: for effect on tumor growth: first trial. The method, then: Delivery of targeted nanoparticle therapeutic.
Statistical methods. Means, SD, and SE of the data were calculated. Differences between the experimental groups and the control groups were tested using Student's-Newman-Keuls' test and Ps<0.05 were considered significant.
Targeted drug delivery to tumor cells through the folate receptor. The efficacy of different doses of conjugates was tested on SCID CB-17 mice bearing s.c. human KB xenografts and was compared with equivalent and higher doses of free methotrexate. Mice were maintained on the folic acid-deficient diet for 3 weeks before injection of the KB tumor cells to achieve circulating levels of folic acid that approach those in human serum and to prevent down-regulation of folate receptors on tumor xenografts (See, Mathias et al., J Nucl Med 29, 1579 (1998)). Six groups of SCID mice with five mice in each group were injected s.c. on one flank with 5×10^6 KB cells in 0.2 mL PBS suspension. The highest total dose of G5-FI-FA-MTX therapeutic used equals 55.0 mg/kg and is equivalent to a 5.0 mg/kg total cumulative dose of free methotrexate (FIG. 29). The therapeutic dose of the conjugate was compared with three cumulative doses of free methotrexate equivalent to 33.3, 21.7, and 5.0 mg/kg accumulated in 10 to 15 injections based on mouse survival. Saline and the conjugate without methotrexate (G5-FI-FA) were used as controls.

For data set [3] the following is noted: mouse, in vivo.
Procedure: (§1) Delivery of targeted nanoparticle therapeutic. Twice weekly, SCID mice with s.c. KB xenografts, starting on day 4 after tumor implantation, received via the tail vein an injection of either targeted or nontargeted conjugate containing methotrexate, a conjugate without methotrexate, free methotrexate, or saline as a control. The compounds were delivered in a 0.2 mL volume of saline per 20 g of mouse. The single dose of methotrexate delivered each time equaled 0.33 mg/kg. The higher doses of 1.67 and 3.33 mg/kg free methotrexate were also tested. The conjugates were delivered at equimolar concentration of methotrexate calculated based on the number of methotrexate molecules present in a nanoparticle. The conjugate without methotrexate was delivered at equimolar concentration of dendrimer. In the initial trial, six groups of mice with five mice in each group received up to 15 injections. In the follow-up trial, mice received up to 28 injections dependent on their survival. The body weights of the mice were monitored throughout the experiment as an indication of adverse effects of the drug. Histopathology of multiple organs was done at the termination of each trial and each time mouse had to be euthanized due to toxic effects or tumor burden. Tissues from lung, heart, liver, pancreas, spleen, kidney, and tumor were analyzed.
Toxicity of dendrimer conjugates. […]
Data set [4] is described as follows: Toxicity of dendrimer conjugates and free methotrexate in mice. To be noted: cumulative doses 33.3 and 21.7 mg/kg.
Procedure: as §1
Toxicity of dendrimer conjugates. […]

Regarding `Nc1nc2ncc(CNc3ccc(C(=O)N[C@@H](CCC(=O)O)C(=O)O)cc3)nc2c(=O)[nH]1` [FA, folic acid], the “reversal of MTX-induced growth-arrest by free FA” value in data set [1] (150 nM FA with 150 nM MTX, 24 h, then 6 d fresh medium, total cell protein) is reported as “almost completely reversed the growth-arrest”. The “increase of cell growth above that of the control cells” value in data set [1] (50 μM free FA with conjugate or free MTX 24 h, then 5 days, XTT) is on record as 20%.

Take `CN(Cc1cnc2nc(N)nc(N)c2n1)c1ccc(C(=O)N[C@@H](CCC(=O)O)C(=O)O)cc1` [MTX, methotrexate]: in data set [1] (1, 2 or 3 days), the “growth inhibition by XTT assay” value is “time-dependent cytotoxicity”. Further, the “inhibition of cell growth” value in data set [1] (FA-deficient medium, time course and dose dependence (FIGS. 21 and 22)) was “inhibited cell growth in a time- and dose-dependent fashion”. Moreover, the “growth inhibition compared with equimolar MTX in G5-FITC-FA-MTX” value in data set [1] (below 1 μM) is reported as “higher”. Moreover, the “effect on tumor growth” value in data set [2] (cumulative dose equivalent to 5.0 mg/kg methotrexate (or equimolar dendrimer)) is given as “no effect on tumor growth”; in data set [2] (cumulative doses 33.3 and 21.7 mg/kg), “affecting tumor growth”. The “day of trial by which all mice died” value in data set [2] (second 99-day trial) was at most 66 days. For the same molecule, in data set [2] (second 99-day trial), the “survivors at the termination of the trial” value was “no mice surviving”. Also, the “histopathology of the liver” value in data set [3] is “advanced liver lesions, collections of inflammatory cells, and periportal inflammation”. Further, the “day of trial by which dose became lethal” value in data set [4] lay in the range of 32 to 36 days.
